Reference: ChEMBL document CHEMBL3596138, “A double effect molecular switch leads to a novel potent negative allosteric modulator of metabotropic glutamate receptor 5” (Medchemcomm, 2014)

Key:
[1] = molecular target: Metabotropic glutamate receptor 4 (Rattus norvegicus, UniProt P31423); test: Positive allosteric modulator activity at rat mGlu4 receptor expressed in HEK293 cells assessed as effect on L-AP4-induced inositol phosphate accumulation incubated for 30 mins by florescence assay; type: functional, cell-based
[2] = molecular target: Metabotropic glutamate receptor 5 (Rattus norvegicus, UniProt P31424); test: Negative allosteric modulator activity at rat mGlu5 receptor expressed in HEK293 cells assessed as effect on quisqualate-induced inositol phosphate accumulation incubated for 30 mins by florescence assay; type: functional, cell-based
[3] = molecular target: Metabotropic glutamate receptor 5 (Rattus norvegicus) (UniProt P31424); test: Potency index, ratio of IC50 for MPEP to IC50 for test compound for negative allosteric modulator activity at rat mGlu5 receptor expressed in HEK293 cells; type: cell-based
[4] = molecular target: Metabotropic glutamate receptor 4 (Rattus norvegicus) (UniProt P31423); details: HEK293
Description: Agonist activity at rat mGlu4 receptor expressed in HEK293 cells by inositol phosphate accumulation assay

[5] = molecular target: Metabotropic glutamate receptor 5 (Rattus norvegicus) (UniProt P31424); details: HEK293
Description: Agonist activity at rat mGlu5 receptor expressed in HEK293 cells by inositol phosphate accumulation assay

Sequence of Metabotropic glutamate receptor 4 (P31423 whole entry): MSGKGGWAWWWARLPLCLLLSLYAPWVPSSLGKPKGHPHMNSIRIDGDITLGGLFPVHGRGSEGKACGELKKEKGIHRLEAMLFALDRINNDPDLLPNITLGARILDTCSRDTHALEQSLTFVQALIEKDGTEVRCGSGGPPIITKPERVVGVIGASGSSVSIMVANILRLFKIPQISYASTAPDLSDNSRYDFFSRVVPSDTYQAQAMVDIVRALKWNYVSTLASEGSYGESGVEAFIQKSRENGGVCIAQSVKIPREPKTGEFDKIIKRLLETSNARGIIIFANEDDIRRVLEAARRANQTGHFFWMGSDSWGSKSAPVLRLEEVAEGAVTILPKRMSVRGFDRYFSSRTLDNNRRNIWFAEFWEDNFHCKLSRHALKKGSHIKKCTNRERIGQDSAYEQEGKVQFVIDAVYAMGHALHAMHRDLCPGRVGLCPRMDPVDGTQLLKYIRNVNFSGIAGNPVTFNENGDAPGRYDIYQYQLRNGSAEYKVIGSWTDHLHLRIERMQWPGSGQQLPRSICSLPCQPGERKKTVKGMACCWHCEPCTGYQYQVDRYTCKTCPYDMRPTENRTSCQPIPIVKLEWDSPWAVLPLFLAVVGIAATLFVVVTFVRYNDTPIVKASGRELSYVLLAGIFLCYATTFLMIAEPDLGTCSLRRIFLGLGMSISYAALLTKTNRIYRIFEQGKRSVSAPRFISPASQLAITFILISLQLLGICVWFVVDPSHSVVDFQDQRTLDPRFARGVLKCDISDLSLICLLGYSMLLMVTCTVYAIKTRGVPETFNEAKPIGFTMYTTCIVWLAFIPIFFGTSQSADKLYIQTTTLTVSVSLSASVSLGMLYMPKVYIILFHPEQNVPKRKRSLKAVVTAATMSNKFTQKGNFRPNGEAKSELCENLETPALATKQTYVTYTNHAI
Sequence of Metabotropic glutamate receptor 5 (P31424 whole entry): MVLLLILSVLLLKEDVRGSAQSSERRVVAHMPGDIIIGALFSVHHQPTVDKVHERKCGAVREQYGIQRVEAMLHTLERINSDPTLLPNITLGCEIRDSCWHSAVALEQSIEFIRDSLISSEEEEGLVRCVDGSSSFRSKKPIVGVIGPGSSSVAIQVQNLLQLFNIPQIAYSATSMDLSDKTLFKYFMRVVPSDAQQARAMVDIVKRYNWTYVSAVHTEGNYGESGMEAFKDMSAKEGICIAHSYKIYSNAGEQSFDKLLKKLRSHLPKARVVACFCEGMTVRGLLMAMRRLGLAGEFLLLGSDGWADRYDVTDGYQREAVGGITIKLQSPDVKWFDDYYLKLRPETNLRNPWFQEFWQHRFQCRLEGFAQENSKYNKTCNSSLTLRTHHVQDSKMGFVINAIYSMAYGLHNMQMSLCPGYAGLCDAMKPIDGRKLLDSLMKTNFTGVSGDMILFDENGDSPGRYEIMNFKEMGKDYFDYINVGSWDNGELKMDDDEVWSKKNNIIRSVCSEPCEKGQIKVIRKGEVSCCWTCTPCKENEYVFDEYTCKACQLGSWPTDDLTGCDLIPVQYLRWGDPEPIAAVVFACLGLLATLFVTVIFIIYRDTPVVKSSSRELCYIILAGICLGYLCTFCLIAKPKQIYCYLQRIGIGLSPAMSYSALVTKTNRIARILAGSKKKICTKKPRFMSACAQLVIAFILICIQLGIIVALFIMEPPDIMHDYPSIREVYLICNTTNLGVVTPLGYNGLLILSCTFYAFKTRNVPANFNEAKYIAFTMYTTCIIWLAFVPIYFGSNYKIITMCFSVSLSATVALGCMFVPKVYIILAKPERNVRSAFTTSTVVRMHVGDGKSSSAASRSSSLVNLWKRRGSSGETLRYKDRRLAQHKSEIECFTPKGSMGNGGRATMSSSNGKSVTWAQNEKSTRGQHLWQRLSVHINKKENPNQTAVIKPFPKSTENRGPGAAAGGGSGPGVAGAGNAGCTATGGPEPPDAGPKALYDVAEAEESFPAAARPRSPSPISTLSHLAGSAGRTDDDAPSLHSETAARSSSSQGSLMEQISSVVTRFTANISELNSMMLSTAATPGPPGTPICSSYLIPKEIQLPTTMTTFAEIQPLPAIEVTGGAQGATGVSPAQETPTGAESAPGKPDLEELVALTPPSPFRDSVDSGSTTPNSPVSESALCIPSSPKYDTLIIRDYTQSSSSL
Sequence of Metabotropic glutamate receptor 5 (Rattus norvegicus) (P31424 21-1203 limits assumed): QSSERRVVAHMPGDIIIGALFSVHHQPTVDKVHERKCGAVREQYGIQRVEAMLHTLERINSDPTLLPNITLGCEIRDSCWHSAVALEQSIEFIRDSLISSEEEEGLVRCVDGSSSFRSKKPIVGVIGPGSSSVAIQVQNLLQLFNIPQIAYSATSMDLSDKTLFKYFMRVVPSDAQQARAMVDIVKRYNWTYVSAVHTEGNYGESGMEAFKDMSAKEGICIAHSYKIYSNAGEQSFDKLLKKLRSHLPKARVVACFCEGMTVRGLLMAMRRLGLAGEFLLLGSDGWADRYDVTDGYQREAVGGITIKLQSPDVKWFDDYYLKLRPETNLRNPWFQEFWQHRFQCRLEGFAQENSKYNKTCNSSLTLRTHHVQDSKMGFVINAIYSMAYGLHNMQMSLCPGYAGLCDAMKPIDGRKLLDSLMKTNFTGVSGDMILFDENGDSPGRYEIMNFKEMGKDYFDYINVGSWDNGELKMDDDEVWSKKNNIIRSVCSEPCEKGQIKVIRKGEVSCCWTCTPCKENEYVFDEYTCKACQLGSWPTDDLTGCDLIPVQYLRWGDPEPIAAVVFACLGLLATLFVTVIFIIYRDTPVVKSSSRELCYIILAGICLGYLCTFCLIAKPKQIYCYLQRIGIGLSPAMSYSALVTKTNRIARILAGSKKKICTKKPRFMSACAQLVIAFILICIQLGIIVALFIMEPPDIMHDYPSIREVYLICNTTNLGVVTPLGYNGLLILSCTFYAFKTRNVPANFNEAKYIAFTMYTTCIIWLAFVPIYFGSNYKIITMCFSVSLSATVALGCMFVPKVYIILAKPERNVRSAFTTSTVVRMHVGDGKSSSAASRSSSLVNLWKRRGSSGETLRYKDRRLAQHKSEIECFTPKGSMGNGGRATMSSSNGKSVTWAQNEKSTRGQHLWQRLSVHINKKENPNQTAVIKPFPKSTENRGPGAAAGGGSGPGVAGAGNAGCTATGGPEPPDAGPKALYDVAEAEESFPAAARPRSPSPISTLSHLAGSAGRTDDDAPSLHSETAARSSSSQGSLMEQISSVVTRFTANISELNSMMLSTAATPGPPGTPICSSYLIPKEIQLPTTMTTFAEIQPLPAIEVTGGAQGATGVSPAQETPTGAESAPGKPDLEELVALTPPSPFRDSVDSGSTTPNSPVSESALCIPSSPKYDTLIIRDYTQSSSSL
Sequence of Metabotropic glutamate receptor 4 (Rattus norvegicus) (P31423 whole entry): as the sequence (P31423 whole entry) above

## COc1cc(C#Cc2ccccn2)ccc1NC(=O)c1ccccc1Cl
[1]
  EC50: > 30000 nM
[2]; read-out: IC50
  IC50: 24 nM
[3]
  Ratio IC50: 4

## N[C@@H](CCP(=O)(O)O)C(=O)O
[4]
  EC10: 10 nM

## N[C@@H](Cn1oc(=O)[nH]c1=O)C(=O)O
[5]
  EC80: 100 nM

## COc1cc(NC(=O)c2ccccn2)ccc1C#Cc1ccccc1Cl
[1]
  EC50: 4100 nM
[2]; hek293
  IC50: Not Active

## COc1cc(NC(=O)c2ccccn2)ccc1NC(=O)c1ccccc1Cl
[1]
  EC50: 104 nM
[2]; read-out: IC50
  IC50: > 30000 nM
